# Reference: patent publication US20090054403A1, “Treatment of Post-Traumatic Stress Disorder” (priority 2007, published 2009)
# Assays:
# [1] = tested on: acoustic startle reactivity; test: Acoustic startle reactivity on day ten of chronic dosing; settings: day ten of b.i.d. oral dosing
# Description: The effects of chronic dosing of nepicastat were examined. Between three and thirteen days prior to the first dosing day the rats were placed inside the startle apparatus and after a five minute acclimation period they were presented with a 118 dB noise burst on average once a minute (a variable inter-trial interval ranging between 30 and 90 seconds will be used) for 20 minutes. The startle responses were measured and a mean for the last twenty startle response was calculated for each rat.
# Acoustic startle reactivity (a series of muscle contractions elicited by an intense burst of noise with a rapid onset), and pre-pulse inhibition (sensorimotor gating measured by analyzing any decrease in startle reactivity which occurs when a startling stimulus is immediately preceded by a non startling stimulus) were both measured in eight SR-Lab (San Diego Instruments, San Diego, Calif.) test stations. The rats were placed individually in a Plexiglas cylinder (10 cm diameter) which was housed in a ventilated sound-attenuating enclosure. Acoustic noise bursts (a broad band noise with a rise time and fall time of 1 msec) were presented via a speaker mounted 30 cm above the animal. Also, these speakers produced a 68 dB level of background noise throughout all test sessions. […] A decibel meter was used to calibrate the speakers in each of the eight test station to ±1% of the mean. Additionally, a SR-Lab calibrating instrument was used to calibrate each of the eight startle detection apparatuses to ±2% of the mean. Startle reactivity and pre-pulse inhibition tests were run concurrently immediately alter the motor activity test (about 4 hours and 40 minutes after the morning daily injection of nepicastat, and SKF-102698, and 10 minutes after a supplemental administration of clonidine and d-amphetamine on dosing day ten).
# [2] = tested on: squirrel monkeys; test: Safety and tolerability of oral dosing in squirrel monkeys; format: in vivo, squirrel monkeys (Saimiri sciureus); settings: 0.5, 2.0, 5.0 mg/kg twice daily for 5 days
# Description: Twenty-seven (27) mature squirrel monkeys (Saimiri sciureus), sixteen females and eleven males were used for this study. The monkeys were maintained on a 13 h/11 h light-dark cycle, with food and water available ad libitum. All procedures used in this study followed NIH guidelines and were approved by the Institutional Animal Care and Use Committee (IACUC). Animals were individually housed and allowed a minimum of one month to acclimate to the colony prior to commencing behavioral studies. A total of six squirrel monkeys, three non-lesioned and three lesioned (received 2 mg/kg MPTP 3 months prior), were used for these studies. To determine the optimal route of administration of drug nepicastat, three different approaches were examined including (i) insertion into treats, (ii) oral syringe, and (ii) oral gavage. […] (ii) Oral syringe injection of drug (0.5, 2, and 5 mg/kg) into the mouth of three non-lesioned and three lesioned monkeys was also not an acceptable route since animals tended to spit out the solution at the highest drug concentration. (iii) Oral gavage administration was carried out in 3 MPTP-Iesioned monkeys at the highest dose (5 mg/kg) and was well accepted.
# A total of six squirrel monkeys, three non-lesioned and three lesioned (received 2 mg/kg MPTP 3 months prior), were used for these studies. […]
# [3] = tested on: heart rate, systolic blood pressure; test: Heart rate and tail cuff systolic blood pressure, 21 days daily treatment; format: in vivo, SHR; settings: 1 and 10 mg/kg p.o. for 21 days
# [4] = tested on: dopamine and norepinephrine levels; test: 24 hour time course of tissue catecholamines in SHR after a single oral dose; format: in vivo, spontaneously hypertensive rats
# Description: The purpose of this study was to determine the 24 hours time course of the effects of nepicastat (10 mg/kg) on dopamine and norepinephrine levels in the mesenteric artery following a single oral dose in spontaneously hypertensive rats. Catecholamine levels were measured at 1, 2, 4, 6, 8, 12, 16, and 24 hours after a single oral administration of either nepicastat (10 mg/kg) or vehicle (dH2O; 10 ml/kg).
# Sixteen-17 week old, male spontaneous hypertensive rats (SHR) rats weighing 300-400 grams were allowed food and water ad libitum. Animals were weighed and randomly assigned, the afternoon before the study, to one of the following treatment groups (n=9 per group): […] of vehicle (10 ml/kg) to be sacrificed at 1, 2, 4, 6, 8, 12, 16, or 24 hours. nepicastat was synthesized as the hydrochloride salt by the Institute of Organic Chemistry, Syntex Discovery Research and obtained from Syntex Central Compound Inventory. nepicastat was dissolved in vehicle (dH2O) to yield an oral dose that could be administered in repeated volumes of 10 ml/kg. All doses of nepicastat were administered as free base equivalents and prepared the morning of administration. Animals were dosed every […] the morning of sacrifice. At 1, 2, 4, 6, 8, 12, 16 and 24 hours following administration, 9 treated animals and 9 vehicle animals were anesthetized with halothane, decapitated, and the left ventricle and mesenteric artery were rapidly harvested and weighed. The mesenteric artery was put in 0.5 ml of 0.4M perchloric acid in a centrifuge tube and the left ventricle put into an empty cryotube. Both tissues were immediately frozen in liquid nitrogen and stored at −70° C. Mesenteric artery catecholamine levels were determined using HPLC with electrochemical detection. At the time of decapitation, plasma samples were taken by draining blood from the carcass into a tube containing heparin, and centrifuging at 4° C.
# Each treatment group was compared to vehicle at each time point. A two way analysis of variance (ANOVA) with effects TRT, HARVEST and their interaction was performed. A one way ANOVA with factor TRT was performed for each harvest time.
# [5] = tested on: mice; test: Clinical observations, behavioral tests and rectal temperature after single oral dose; format: in vivo; settings: 30, 100, 300 mg/kg single oral, from 60 min
# Description: A single oral dose of vehicle or Nepicastat formulation was administered by gavage to each mouse using a rodent intubator. The oral route was selected because it is a proposed clinical route of administration. Dose volumes were calculated on the basis of individual body weights recorded before dosing (body weight data are not tabulated in this report). Food and water were withheld from the mice 2.5 to 3.5 hours before dosing, instead of 1.5 hours as specified in the protocol.
# Clinical observations were recorded before dosing. Beginning 60 minutes after dosing, mice in each treatment group were evaluated in groups of up to 3 over an interval of approximately 10 minutes each for clinical observations and protocol-specified behavioral tests.^1 One mouse in the 30-mg/kg group and 1 mouse in the 100-mg/kg group died after dosing and they were removed from the study. Surviving mice were euthanatized and removed from the study at the end of the observation/testing period.
# Mice in groups of 6 males each were administered single oral doses of 0 (vehicle), 30, 100, or 300 mg/kg of nepicastat by gavage. Clinical observations and behavioral tests were initiated 60 minutes after administration of the test formulation. At the end of the observation period, all surviving mice were euthanatized and removed from the study.
SMILES,acoustic startle reactivity vs vehicle [1],acoustic startle reactivity vs vehicle ([1]; listed as SKF102698),tolerability [2],heart rate and systolic blood pressure (tail cuff) [3],"duration of increase in dopamine/norepinephrine ratio ([4]; 10 mg/kg oral, mesenteric artery) [h]","dopamine vs vehicle, mesenteric artery ([4]; 10 mg/kg single oral, 1-24 h)","dopamine/norepinephrine ratio vs vehicle, mesenteric artery ([4]; 10 mg/kg single oral, 1-24 h)","norepinephrine vs vehicle, mesenteric artery ([4]; 10 mg/kg single oral, 1-24 h)","duration of increase in dopamine/norepinephrine ratio ([4]; 30 mg/kg oral, left ventricle) [h]",clinical or gross behavior changes [5],rectal body temperature vs vehicle-control [5]
"Fc1cc(F)cc(Cn2cc[nH]c2=S)c1 [SKF 102698, reference compound]",significantly lower startle response compared to cyclodextrin,significantly reduced,,,,,,,,,
"Cl.NCc1c[nH]c(=S)n1[C@H]1CCc2c(F)cc(F)cc2C1 [nepicastat, (S)-5-Aminomethyl-1-(5,7-difluoro-1,2,3,4-tetrahydronaphth-2-yl)-2,3-dihydro-2-thioxo-1H-imidazole hydrochloride]",,,well tolerated at the two lower doses,"did not alter heart rate, or systolic blood pressure",12,significantly (p<0.05) higher than those of vehicle at the 2 and 6 hr harvest times,"significantly (p<0.05) greater than those of vehicle treated animals at the 1, 2, 4, 6 and 12 hour time points",significantly (p<0.05) lower than vehicle only at the 4 hr time point,24,No treatment-related clinical or gross behavior changes,Lower body temperatures
